Where two headings read alike, the source gives them in different places.
Tests used:
[1] = tested on: tumor; conditions: in vivo; cited from earlier work
[2] = cited from earlier work
[3] = cited from earlier work; for bone marrow toxicity: in vivo
[4] = peripheral white blood cell counts (bone marrow toxicity) and survival in normal male ICR mice; type: in vivo, mouse (ICR)
Outline: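 Male ICR mice, ten per group, received a single i.p. dose at 0.1 ml/10 g. 2MCαG and 6MCαG were given in saline, CCNU in 0.5% CMC and GCNU in 50% PEG. Peripheral white blood cells were counted on days 3, 8 and 15 after dosing.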

[5] = cited from earlier work; remark: listed apart in the source

SMILES | antitumor activity [1] | diabetogenic activity ([2]; in vivo) | bone marrow toxicity [3] | leukopenia ([3]; single ip, 15 mg/kg) | Death rate (death/used) ([4]; 10 mg/kg ip single) | Average count of WBC ([4]; 10 mg/kg ip single, day 3) | Average count of WBC ([4]; 10 mg/kg ip single, day 8) | Average count of WBC ([4]; 10 mg/kg ip single, day 15) | Death rate (death/used) ([4]; 20 mg/kg ip single) | Average count of WBC ([4]; 20 mg/kg ip single, day 3) | Average count of WBC ([4]; 20 mg/kg ip single, day 8) | Average count of WBC ([4]; 20 mg/kg ip single, day 15) | Death rate (death/used) ([4]; 40 mg/kg ip single) | Average count of WBC ([4]; 40 mg/kg ip single, day 3) | Death rate (death/used) ([4]; 60 mg/kg ip single) | Average count of WBC ([4]; 60 mg/kg ip single, day 3) | diabetogenic activity ([2]; test animals) | water solubility [5]
CN(N=O)C(=O)N[C@H]1C(O)O[C@H](CO)[C@@H](O)[C@@H]1O (stereo partly drawn) [streptozotocin, N-carbamyl-N'-methyl-N'-nitroso-2-amino-2-deoxy-D-glucopyranose] | exhibits an antitumor activity | diabetogenic | – | – | – | – | – | – | – | – | – | – | – | – | – | – | – | –
CC(=O)OC[C@H]1OC(OC(C)=O)[C@H](NC(=O)N(CCCl)N=O)[C@@H](OC(C)=O)[C@@H]1OC(C)=O (stereo partly drawn) [GCNU, 3-(tetraacetylglucopyranos-2-yl)-1-(2-chloroethyl)-1-nitrosourea, reference compound] | – | – | reduced bone marrow toxicity | without causing leukopenia | 0/10 | 83.1±4.5 x 10^2 WBC/mm^3 | 140.3±15.7 x 10^2 WBC/mm^3 | 116.0±10.0 x 10^2 WBC/mm^3 | 6/10 | 60.4±3.6 x 10^2 WBC/mm^3 | 131.4±17.4 x 10^2 WBC/mm^3 | 106.0±9.0 x 10^2 WBC/mm^3 | 10/10 | 33.2±3.3 x 10^2 WBC/mm^3 | 10/10 | 26.5±3.5 x 10^2 WBC/mm^3 | nondiabetogenic activity | –
O=NN(CCCl)C(=O)N[C@H]1C(O)O[C@H](CO)[C@@H](O)[C@@H]1O (stereo partly drawn) [2-[3-(2-chloroethyl)-3-nitrosoureido]-2-deoxy-D-glucopyranose] | improved antitumor activity | – | low bone marrow toxicity | – | – | – | – | – | – | – | – | – | – | – | – | – | diabetogenic | water-soluble

From patent publication US4057684A, “Alkyl amino-glucopyranoside derivative and process for producing the same” (priority 1975, dated 1977)
